# Like-named read-outs stand apart in the source and are kept apart here.
# Key:
# full-length ATR = full-length ATR (Homo sapiens (Human), UniProt Q13535); test: ATR Inhibition Assay (radioactive-phosphate incorporation); type: biochemical
# Method: Compounds were screened for their ability to inhibit ATR kinase using a radioactive-phosphate incorporation assay. Assays were carried out in a mixture of 50 mM Tris/HCl (pH 7.5), 10 mM MgCl2 and 1 mM DTT. Final substrate concentrations were 10 μM [γ-33P]ATP (3 mCi 33P ATP/mmol ATP, Perkin Elmer) and 800 μM target peptide ([…]).
# Assays were carried out at 25° C. in the presence of 5 nM full-length ATR. An assay stock buffer solution was prepared containing all of the reagents listed above, with the exception of ATP and the test compound of interest. 13.5 μL of the stock solution was placed in a 96 well plate followed by addition of 2 μL of DMSO stock containing serial dilutions of the test compound (typically starting from a final concentration of 15 μM with 3-fold serial dilutions) in duplicate (final DMSO concentration 7%). The plate was pre-incubated for 10 minutes at 25° C. and the reaction initiated by addition of 15 μL [γ-33P]ATP (final concentration 10 μM).
# The reaction was stopped after 24 hours by the addition of 30 μL 0.1 M phosphoric acid containing 2 mM ATP. A multiscreen phosphocellulose filter 96-well plate (Millipore, Cat no. MAPHNOB50) was pretreated with 100 μL 0.2M phosphoric acid prior to the addition of 45 μL of the stopped assay mixture. The plate was washed with 5×200 μL 0.2M phosphoric acid. After drying, 100 μL Optiphase ‘SuperMix’ liquid scintillation cocktail (Perkin Elmer) was added to the well prior to scintillation counting (1450 Microbeta Liquid Scintillation Counter, Wallac).
# After removing mean background values for all of the data points, Ki(app) data were calculated from non-linear regression analysis of the initial rate data using the Prism software package (GraphPad Prism version 3.0cx for Macintosh, GraphPad Software, San Diego Calif., USA).
# Below is a chart showing the ATR Inhibition Ki values of compounds of the disclosure.
# [1] = tested on: HCT116 colorectal cancer cells; test: Cisplatin Sensitization Assay (96h cell viability MTS); type: cell-based; details: concentration of compound required to reduce the IC50 of Cisplatin alone by at least 3-fold, 96h MTS
# Method: Compounds can be screened for their ability to sensitize HCT116 colorectal cancer cells to Cisplatin using a 96h cell viability (MTS) assay. […] Compounds and Cisplatin are then both added simultaneously to the cell media in 2-fold serial dilutions from a top final concentration of 10 μM as a full matrix of concentrations in a final cell volume of 200 μl, and the cells are then incubated at 37° C. in 5% CO2. After 96h, 40 μl of […] (Promega G358a) is added to each well and the cells are incubated for 1 h at 37° C. in 5% CO2.
# [2] = ATR Inhibition Ki(app), 10 μM ATP, 800 μM target peptide, 5 nM full-length ATR, 25° C.
# Chain of full-length ATR (Q13535 whole entry): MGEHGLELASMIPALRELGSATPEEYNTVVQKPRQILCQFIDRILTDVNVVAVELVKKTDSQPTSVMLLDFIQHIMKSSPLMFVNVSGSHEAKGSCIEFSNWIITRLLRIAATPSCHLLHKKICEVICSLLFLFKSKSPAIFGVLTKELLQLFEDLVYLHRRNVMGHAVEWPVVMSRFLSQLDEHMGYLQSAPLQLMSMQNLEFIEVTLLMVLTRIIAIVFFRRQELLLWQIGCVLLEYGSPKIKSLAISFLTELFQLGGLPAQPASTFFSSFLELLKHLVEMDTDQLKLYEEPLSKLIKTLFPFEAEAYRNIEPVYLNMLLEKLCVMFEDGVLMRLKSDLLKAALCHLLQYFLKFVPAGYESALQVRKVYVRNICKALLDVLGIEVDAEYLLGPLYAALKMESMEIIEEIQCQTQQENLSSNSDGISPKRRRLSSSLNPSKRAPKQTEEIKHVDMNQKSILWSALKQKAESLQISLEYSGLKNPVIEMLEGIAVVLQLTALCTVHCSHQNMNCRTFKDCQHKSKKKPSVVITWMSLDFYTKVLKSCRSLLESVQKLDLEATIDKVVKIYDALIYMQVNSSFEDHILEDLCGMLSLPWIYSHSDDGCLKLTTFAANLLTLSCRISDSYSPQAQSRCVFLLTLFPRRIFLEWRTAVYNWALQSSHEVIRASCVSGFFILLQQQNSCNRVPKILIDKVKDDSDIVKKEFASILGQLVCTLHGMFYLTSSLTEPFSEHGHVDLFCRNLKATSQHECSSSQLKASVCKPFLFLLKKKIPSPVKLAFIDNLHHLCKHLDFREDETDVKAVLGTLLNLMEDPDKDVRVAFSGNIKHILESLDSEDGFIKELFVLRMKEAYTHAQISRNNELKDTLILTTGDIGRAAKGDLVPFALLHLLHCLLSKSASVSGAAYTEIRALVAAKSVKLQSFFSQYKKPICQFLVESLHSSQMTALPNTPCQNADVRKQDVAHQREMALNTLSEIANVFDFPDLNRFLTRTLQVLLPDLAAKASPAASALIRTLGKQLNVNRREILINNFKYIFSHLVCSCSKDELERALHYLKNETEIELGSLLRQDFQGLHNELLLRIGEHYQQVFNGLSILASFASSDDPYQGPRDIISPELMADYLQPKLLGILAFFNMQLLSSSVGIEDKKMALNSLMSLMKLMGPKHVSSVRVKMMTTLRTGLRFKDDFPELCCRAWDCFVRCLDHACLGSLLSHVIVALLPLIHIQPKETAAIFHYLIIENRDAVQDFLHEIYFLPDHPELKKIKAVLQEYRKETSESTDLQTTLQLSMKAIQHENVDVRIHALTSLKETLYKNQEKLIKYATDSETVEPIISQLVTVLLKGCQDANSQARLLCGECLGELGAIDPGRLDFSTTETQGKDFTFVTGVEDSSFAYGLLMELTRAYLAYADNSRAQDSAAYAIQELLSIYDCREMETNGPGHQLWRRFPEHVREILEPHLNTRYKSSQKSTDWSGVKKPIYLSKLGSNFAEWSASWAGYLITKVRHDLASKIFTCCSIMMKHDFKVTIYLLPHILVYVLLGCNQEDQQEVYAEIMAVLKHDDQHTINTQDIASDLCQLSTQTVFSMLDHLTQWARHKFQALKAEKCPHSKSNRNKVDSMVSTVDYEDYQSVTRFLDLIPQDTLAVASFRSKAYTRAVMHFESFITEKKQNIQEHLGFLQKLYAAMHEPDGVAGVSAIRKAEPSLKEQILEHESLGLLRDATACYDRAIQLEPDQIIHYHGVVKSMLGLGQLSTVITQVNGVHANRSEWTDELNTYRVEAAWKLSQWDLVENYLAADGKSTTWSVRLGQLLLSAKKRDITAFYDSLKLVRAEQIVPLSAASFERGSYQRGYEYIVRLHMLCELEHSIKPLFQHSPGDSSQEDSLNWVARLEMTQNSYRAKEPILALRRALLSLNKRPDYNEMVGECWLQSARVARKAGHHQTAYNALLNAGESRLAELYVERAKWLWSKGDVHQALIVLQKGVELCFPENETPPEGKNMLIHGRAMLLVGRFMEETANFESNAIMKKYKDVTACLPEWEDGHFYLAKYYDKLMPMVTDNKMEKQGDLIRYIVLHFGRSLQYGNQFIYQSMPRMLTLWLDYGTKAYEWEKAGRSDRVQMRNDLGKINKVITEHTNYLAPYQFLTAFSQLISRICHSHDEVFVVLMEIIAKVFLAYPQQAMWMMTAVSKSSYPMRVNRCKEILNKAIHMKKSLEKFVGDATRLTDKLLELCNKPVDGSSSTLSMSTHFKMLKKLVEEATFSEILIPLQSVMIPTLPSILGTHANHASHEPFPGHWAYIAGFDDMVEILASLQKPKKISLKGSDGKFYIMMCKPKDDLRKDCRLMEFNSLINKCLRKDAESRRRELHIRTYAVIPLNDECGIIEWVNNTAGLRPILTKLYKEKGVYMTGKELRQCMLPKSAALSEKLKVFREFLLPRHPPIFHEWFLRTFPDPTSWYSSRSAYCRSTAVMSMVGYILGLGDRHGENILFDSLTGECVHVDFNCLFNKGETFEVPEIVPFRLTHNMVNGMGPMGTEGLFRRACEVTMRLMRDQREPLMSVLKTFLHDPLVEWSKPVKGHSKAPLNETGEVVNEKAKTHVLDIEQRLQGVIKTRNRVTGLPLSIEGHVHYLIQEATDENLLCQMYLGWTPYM
smiles,measurement,setting,value
CNCc1ccc(-c2cc(-c3nc(-c4c[nH]c(=O)c(C(C)C)c4)cnc3N)on2)cc1 [Compound I-100],Ki,full-length ATR; [2],≤ 5 nM
"CCN(CC)C(=O)C(C)n1cc(-c2cnc(N)c(-c3cc(-c4ccc(CNC)cc4)no3)n2)ccc1=O (centres unmarked) [Compound I-101, 2-(5-(5-amino-6-(3-(4-((methylamino)methyl)phenyl)isoxazol-5-yl)pyrazin-2-yl)-2-oxopyridin-1(2H)-yl)-N,N-diethylpropanamide]",Ki,full-length ATR,5 to 50 nM
CC(N)c1cccc(-c2cc(-c3nc(-c4ccc(=O)[nH]c4)cnc3N)on2)c1 (centres unmarked) [Compound I-103],Ki,full-length ATR; [2],≤ 5 nM
CC(N)c1cccc(-c2cc(-c3nc(-c4ccc(=O)n(C(C)C(N)=O)c4)cnc3N)on2)c1 (centres unmarked) [Compound I-104],Ki,full-length ATR; [2],≤ 5 nM
CNCc1ccc(-c2cc(-c3nc(-c4ccc(=O)n(C)c4)cnc3N)on2)cc1 [Compound I-108],Ki,full-length ATR; [2],≤ 5 nM
CCCn1cc(-c2cnc(N)c(-c3cc(-c4ccc(CNC)cc4)no3)n2)ccc1=O [Compound I-109],Ki,full-length ATR; [2],≤ 5 nM
"Nc1ncc(-c2ccc(=O)[nH]c2)nc1-c1cc(-c2ccc(CNC3CC3)cc2)no1 [Compound I-111, 5-[5-amino-6-[3-[4-[(cyclopropylamino)methyl]phenyl]isoxazol-5-yl]pyrazin-2-yl]-1H-pyridin-2-one]",Ki,full-length ATR; [2],≤ 5 nM
Nc1ncc(-c2c[nH]c(=O)c(Cl)c2)nc1-c1cc(-c2ccc(CNC3CC3)cc2)no1 [Compound I-112],Ki,full-length ATR; [2],≤ 5 nM
CNCc1ccc(-c2cc(-c3nc(-c4ccc(=O)n(CC5(C)COC5)c4)cnc3N)on2)cc1 [Compound I-113],Ki,full-length ATR; [2],≤ 5 nM
CNCc1ccc(-c2cc(-c3nc(-c4c[nH]c(=O)c(C5=CCCCC5)c4)cnc3N)on2)cc1 [Compound I-114],Ki,full-length ATR; [2],≤ 5 nM
CNCc1ccc(-c2cc(-c3nc(-c4c[nH]c(=O)c(C5CCCCC5)c4)cnc3N)on2)cc1 [Compound I-115],Ki,full-length ATR; [2],≤ 5 nM
CNCc1ccc(-c2cc(-c3nc(-c4ccc(=O)n(C(CO)CO)c4)cnc3N)on2)cc1 [Compound I-117],Ki,full-length ATR; [2],≤ 5 nM
CNCc1ccc(-c2cc(-c3nc(-c4ccc(=O)n(C(C)C)c4)cnc3N)on2)c(OC(C)C)c1 [Compound I-118],Ki,full-length ATR; [2],≤ 5 nM
CNCc1ccc(-c2cc(-c3nc(-c4cc(F)c(=O)n(C(C)C)c4)cnc3N)on2)cc1 [Compound I-121],Ki,full-length ATR; [2],5 to 50 nM
CCC(C#N)(CC)n1cc(-c2cnc(N)c(-c3cc(-c4ccc(CNC5CC5)cc4F)no3)n2)ccc1=O [Compound I-135],CP3 shift,[1],0.01 µM
CCC(C#N)(CC)n1cc(-c2cnc(N)c(-c3cc(-c4ccc(CNC5CC5)cc4F)no3)n2)ccc1=O [Compound I-136],Ki,full-length ATR; [2],≤ 5 nM
CCC(CC)n1cc(-c2cnc(N)c(-c3cc(-c4cccc(C5(N)CC5)c4)no3)n2)ccc1=O [Compound I-137],Ki,full-length ATR; [2],5 to 50 nM
CCC(CC)n1cc(-c2cnc(N)c(-c3cc(-c4ccc(F)c(C(C)N)c4)no3)n2)ccc1=O (centres unmarked) [Compound I-141],Ki,full-length ATR; [2],≤ 5 nM
CCC(CC)n1cc(-c2cnc(N)c(-c3cc(-c4cccc(C(C)N)c4F)no3)n2)ccc1=O (centres unmarked) [Compound I-142],Ki,full-length ATR; [2],≤ 5 nM
CC(C)(C#N)n1cc(-c2cnc(N)c(-c3cc(-c4ccc(CNC5CC5)cc4)no3)n2)ccc1=O [Compound I-144],Ki,full-length ATR; [2],≤ 5 nM
CCC(CC)n1cc(-c2cnc(N)c(-c3cc(-c4cccc(C(C)(C)N)c4)no3)n2)ccc1=O [Compound I-146],Ki,full-length ATR; [2],≤ 5 nM
CC(CO)NCc1ccc(-c2cc(-c3nc(-c4ccc(=O)n(C(C)(C)C#N)c4)cnc3N)on2)cc1 (centres unmarked) [Compound I-147],Ki,full-length ATR; [2],≤ 5 nM
CNCc1ccc(-c2nnc(-c3nc(-c4ccc(=O)[nH]c4)cnc3N)o2)cc1 [Compound I-148],Ki,full-length ATR; [2],≤ 5 nM
CNCc1ccc(-c2nnc(-c3nc(-c4ccc(=O)n(C(C)C)c4C#N)cnc3N)o2)cc1 [Compound I-149],Ki,full-length ATR; [2],5 to 50 nM
CNCc1ccc(-c2nnc(-c3nc(-c4ccc(=O)n(C(C)C)c4C)cnc3N)o2)c(C)c1 [Compound I-150],Ki,full-length ATR; [2],50 to 100 nM
CNCc1ccc(-c2nnc(-c3nc(-c4ccc(=O)n(C(C)C)c4C#N)cnc3N)o2)c(C)c1 [Compound I-151],Ki,full-length ATR; [2],5 to 50 nM

# — patent US9630956B2, “Compounds useful as inhibitors of ATR kinase” (Vertex Pharmaceuticals Incorporated, priority 2010, dated 2017)
